Assay [1] has as its system rhythmic bladder voiding contractions. Nature of the assay: Volume-induced rhythmic bladder voiding contractions in anaesthetized rats. It is filed as in vivo, rat. The following applies: Rattus norvegicus; for ED (10 min disappearance of contractions): read-out: ED10 min; for ED50: read-out: ED50 (frequency). As to the method: Female Sprague Dawley rats weighing 225-275 g (Crl: CDo BR, Charles River Italia) were used. The animals were housed with free access to food and water and were maintained on a forced 12 h alternating light-dark cycle at 22-24° C. for at least one week, except during the experiment. The activity on the rhythmic bladder voiding contractions was evaluated according to the method of Dray (J. Pharmacol. Methods, 13:157, 1985), with some modifications as in Guarneri (Pharmacol. Res., 27:173, 1993). Briefly, rats were anesthetized by subcutaneous injection of 1.25 g/kg (5 ml/kg) urethane, after which the urinary bladder was catheterized via the urethra using PE 50 polyethylene tubing filled with physiological saline. The catheter was tied in place with a ligature around the external urethral orifice and was connected with conventional pressure transducers (Statham P23 ID/P23 XL). […] The bladder was then filled via the recording catheter by incremental volumes of warm (37° C.) saline until reflex bladder voiding contractions occurred (usually 0.8-1.5 ml). For intravenous (i.v.) injection of bioactive compounds, PE 50 polyethylene tubing filled with physiological saline was inserted into the jugular vein. From the cystometrogram, the number of contractions recorded 15 min before (basal values) and after treatment, as well as the mean amplitude of these contractions (mean height of the peaks in mmHg) was evaluated.
Since most compounds produced an effect that was relatively rapid in onset and led to a complete cessation of bladder contractions, bioactivity was conveniently estimated by measuring the duration of bladder quiescence (i.e., the duration of time during which no contractions occurred). The number of animals tested showing a reduction in the number of contractions >30% of that observed in the basal period was also recorded.
Also computed in this manner were extrapolated doses which induced a reduction of the number of contractions of greater than 30% in 50% of treated rats (ED50, frequency) by the method of Bliss (Bliss C. I., Quart. J. Pharm. Pharmacol. 11, 192-216, 1938). After the suppressive effects of drug injection wore off, the height of the contractile peaks was compared with the height of the peaks previously recorded after the control intravenous administration of vehicle. The potency of the tested compounds (ED50 value: the extrapolated doses inducing a 30% reduction of amplitude of the contractions in 50% of treated rats) was evaluated on a quantal basis by the method of Bliss (Bliss C. I., Quart. J. Pharm. Pharmacol. 11, 192-216, 1938).

The test system of the next assay is urinary bladder. In words: Cystometric parameters (cystometrogram) in conscious rats. It is filed as in vivo, rat. To be noted: for BVC after treatment / MP after treatment: mean ± S.E.; for change in vivo at 0.3 mg/kg / change in vivo at 1 mg/kg: Rattus norvegicus, iv, 0.25 h, after vs before; for change in vivo at 0.3 mg/kg: i.v. 300 μg/kg; for change in vivo at 1 mg/kg: i.v. 1000 μg/kg. As to the method:
Male Sprague Dawley rats (Crl: CDo BR) weighing 250-350 g were used. The animals were housed with free access to food and water and maintained on a forced 12 h alternating light-dark cycle at 22-24° C. for at least one week, except during performance of the experiment. To quantify urodynamic parameters in conscious rats, cystometrographic studies were performed using procedures previously described (Guarneri et al., Pharmacol. Res., 24:175, 1991). […] An approximately 10 mm long midline incision was made in the shaved and cleaned abdominal wall. The urinary bladder was gently freed from adhering tissues, emptied, and then cannulated, via an incision at the dome, with a polyethylene cannula (Portex PP30), which was permanently sutured with silk thread. The cannula was exteriorized through a subcutaneous tunnel in the retroscapular area, where it was connected with a plastic adapter to avoid the risk of removal by the animal. For intravenous (i.v.) injection of test compounds, a PE 50 polyethylene tubing filled with physiological saline was inserted into the jugular vein and exteriorized in the retroscapular area. The rats were utilized exclusively one day after implantation. On the day of the experiment, the rats were placed in Bollman's cages, after a stabilization period of 20 min, and the free tip of the bladder catheter was connected through a T-shaped tube to a pressure transducer (Bentley T 800/Marb P 82) and to a peristaltic pump (Gilson minipuls 2) for a continuous infusion, at the constant rate of 0.1 ml/min, of saline solution into the urinary bladder. The intraluminal pressure signal during infusion was continuously recorded on a polygraph (Battaglia Rangoni KO 380 with ADCl/T amplifier).
Two urodynamic parameters were evaluated: bladder volume capacity (BVC) and micturition pressure (MP). BVC (in ml) is defined as the minimum volume infused after which detrusor contraction (followed by micturition) occurs. MP (in mm Hg) is defined as the maximal intravesical pressure induced by the contraction of detrusor during micturition. Basal BVC and MP values were calculated as the means of the first two recorded cystometrograms. At this point in the assay, the infusion was interrupted and the test compounds were administered. Fifteen minutes after intravenous administration two additional cystometrograms were recorded in each animal and the mean values of the two cystometrographic parameters were calculated. The statistical significance of the differences in urodynamic parameter values was evaluated by Student's t test for paired data.

Assay [2] deals with T1, human 5-HT1A serotonergic receptor (Homo sapiens, UniProt P08908).
T1 construct: expressed in transfected cells; host or cells: HeLa
T1 sequence (P08908 1-422): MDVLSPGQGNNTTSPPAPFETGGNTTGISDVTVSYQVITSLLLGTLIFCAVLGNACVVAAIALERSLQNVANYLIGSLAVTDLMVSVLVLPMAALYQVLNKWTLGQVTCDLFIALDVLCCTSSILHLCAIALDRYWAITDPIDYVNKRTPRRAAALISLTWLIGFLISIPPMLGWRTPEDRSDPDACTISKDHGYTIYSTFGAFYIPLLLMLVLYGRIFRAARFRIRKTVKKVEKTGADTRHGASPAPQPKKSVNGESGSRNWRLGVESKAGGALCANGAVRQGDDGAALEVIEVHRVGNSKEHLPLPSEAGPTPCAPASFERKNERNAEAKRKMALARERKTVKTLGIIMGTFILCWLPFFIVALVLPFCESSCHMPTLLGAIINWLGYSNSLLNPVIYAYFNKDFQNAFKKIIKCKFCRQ
In words: Radioreceptor binding, recombinant human 5-HT1A receptors ([3H]8-OH-DPAT, HeLa membranes). The following applies: recombinant human receptor, [3H]8-OH-DPAT; Ki from IC50 by Cheng & Prusoff; read-out: Binding affinity for the 5-HT1A receptor, Ki. The procedure, abridged:
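Membranes from HeLa cells stably transfected with human 5-HT1A clone G-21 incubated 30 min at 30° C with 0.2-1 nM [3H]8-OH-DPAT in 50 mM Tris HCl pH 7.4, 2.5 mM MgCl2, 10 μM pargiline; nonspecific binding with 10 μM 5-HT. Filtration assay; IC50 from curve fitting converted to Ki by Cheng-Prusoff.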

Where [3] appears, read: extrapolated dose inducing 10 min of disappearance of the contractions, intravenous, anaesthetized rats.
The mark [4] stands for this setting: extrapolated dose inducing a reduction of the number of contractions >30% in 50% of treated rats, intravenous.

Results on 9 compounds are retold here after patent US6399614B1, “1-(N-phenylaminoalkyl)piperazine derivatives substituted at position 2 of the phenyl ring” (Recordati S.A. Chemical and Pharmaceutical Company, priority 1997, dated 2002).

Read-outs that look alike come from different tables or passages of the source.

Regarding `O=C(C1CCCCC1)N(CCN1CCN(c2cccc3[nH]ccc23)CC1)c1ccccc1OC(F)(F)F` [Example 51, 1-[N-cyclohexylcarbonyl-N-(2-trifluoromethoxyphenyl)-2-aminoethyl]-4-(4-indolyl)piperazine], the ED (10 min disappearance of contractions) in assay [1] (setting [3]) is 0.276 mg/kg. Further, the 50% effective dose (ED50) (in general, the dose at which the effect has come halfway, by size or by number of responders) in assay [1] (setting [4]) was 0.2 mg/kg. In addition, the BVC after treatment in the assay with urinary bladder (15 min after i.v. 300 μg/kg) was 0.84 ± 0.14 mL; with urinary bladder (15 min after i.v. 1000 μg/kg) it was 1.08 ± 0.09 mL. Also, the MP after treatment in the assay on urinary bladder (15 min after i.v. 300 μg/kg) is 73.7 ± 6.1 mmHg; in the assay on urinary bladder (15 min after i.v. 1000 μg/kg), 67.9 ± 5.6 mmHg. For the same compound, the change in vivo at 0.3 mg/kg in the assay with urinary bladder (read-out: BVC % of change) was 27.7%; with urinary bladder (read-out: MP % of change) it was -7.9%. The values for the change in vivo at 1 mg/kg in the assay on urinary bladder (read-out: BVC % of change) and in the assay with urinary bladder (read-out: MP % of change) were 36.5% and -13.3%, respectively. Further, the Ki (commonly a measure of affinity in units of concentration, obtained from inhibition or displacement) in assay [2] stood at 0.24 nM.

As to `COc1cc(NC(C)=O)ccc1N1CCN(CCN(C(=O)C2CCCCC2)c2ccccc2OC(F)(F)F)CC1` [Example 57, 1-[N-cyclohexylcarbonyl-N-(2-trifluoromethoxyphenyl)-2-aminoethyl]-4-(4-acetylamino-2-methoxyphenyl)piperazine], the ED (10 min disappearance of contractions) in assay [1] (setting [3]) was 0.254 mg/kg. Also, the median effective dose (ED50) in assay [1] (setting [4]) was 0.252 mg/kg. The Ki in assay [2] stood at 0.74 nM.

Consider `COc1cc(N)ccc1N1CCN(CCN(C(=O)C2CCCCC2)c2ccccc2OCC(F)(F)F)CC1` [Example 66], for which the ED (10 min disappearance of contractions) in assay [1] (setting [3]) is 0.167 mg/kg. For the same compound, the ED50 in assay [1] (setting [4]) is 0.058 mg/kg. Besides, the Ki in assay [2] stood at 0.76 nM.

As for `COc1cc(N)ccc1N1CCN(CCN(C(=O)C2CCCCC2)c2ccccc2OC(F)(F)F)CC1` [Example 56, 1-[N-cyclohexylcarbonyl-N-(2-trifluoromethoxyphenyl)-2-aminoethyl]-4-(4-amino-2-methoxyphenyl)piperazine], the ED (10 min disappearance of contractions) in assay [1] (setting [3]) is 0.061 mg/kg. In assay [1] (setting [4]), the median effective dose (ED50) is 0.021 mg/kg. Also, the Ki in assay [2] was 2.13 nM.

In the case of `COc1ccccc1NCCN1CCN(c2ccccc2OC)CC1` [Example 20, 1-[N-(2-methoxyphenyl)-2-aminoethyl]-4-(2-methoxyphenyl)piperazine], in assay [1] (iv), the ED (10 min disappearance of contractions) came out at 0.097 mg/kg and the ED50 came to 0.025 mg/kg. In addition, the inhibitory constant (Ki) in assay [2] came to 24.6 nM.

On to `COc1ccccc1N1CCN(CCN(C(=O)C2CCCCC2)c2ccccc2N)CC1` [Example 27, 1-[N-(2-aminophenyl)-N-cyclohexylcarbonyl-2-aminoethyl]-4-(2-methoxyphenyl) piperazine], for which, in assay [1] (setting [3]), the ED (10 min disappearance of contractions) was 0.131 mg/kg. Moreover, the ED50 in assay [1] (setting [4]) is 0.013 mg/kg. The Ki in assay [2] is 0.57 nM.

Take `COc1ccccc1N(CCN1CCN(c2cccc3[nH]ccc23)CC1)C(=O)C1CCCCC1` [Example 48, 1-[N-cyclohexylcarbonyl-N-(2-methoxyphenyl)-2-aminoethyl]-4-(4-indolyl)piperazine]: the ED (10 min disappearance of contractions) in assay [1] (setting [3]) was 0.04 mg/kg. Besides, the ED50 in assay [1] (setting [4]) was 0.014 mg/kg. Besides, the inhibition constant (Ki) in assay [2] worked out at 0.46 nM.

As for `COc1ccccc1NCCN1CCN(c2cccc3[nH]ccc23)CC1` [Example 47, 1-[N-(2-methoxyphenyl)-2-aminoethyl]-4-(4-indolyl)piperazine], in assay [1] (setting [3]), the ED (10 min disappearance of contractions) was 0.181 mg/kg. Besides, the ED50 in assay [1] (setting [4]) is 0.02 mg/kg. Besides, the Ki in assay [2] was 2.33 nM.

As to `COc1ccccc1N1CCN(CCNc2ccccc2C(C)=O)CC1` [Example 11, 1-[N-(2-acetylphenyl)-2-aminoethyl]-4-(2-methoxyphenyl)piperazine], the ED (10 min disappearance of contractions) in assay [1] (setting [3]) is 0.318 mg/kg. The ED50 in assay [1] (setting [4]) was 0.04 mg/kg. Moreover, the Ki in assay [2] was 2.92 nM.
